Test results from US12459951B2, “Compounds that interact with RAS superfamily proteins for treatment of cancers, inflammatory diseases, rasopathies, and fibrotic disease” (SHY Therapeutics, LLC, priority 2022, dated 2025).
Counter-ions that a name gives are not always drawn. Like-named read-outs stand apart in the source and are kept apart here.

Assays:
Akt phosphorylation = test: Akt Phosphorylation Assay (western blot), Panc-1; format: cell-based, human; settings: at 10 μM, * = activation
Method: Protocol for Western Akt Cell-Based Phosphorylation Assay
This assay is referred to as the “Akt Phosphorylation Assay” throughout this application.
Human tumor-derived pancreatic cancer cell line Panc-1 (expressing KRas G12D mutant) was purchased from American Type Culture Collection and grown in complete DMEM-High Glucose supplemented with penicillin (100 U/mL), streptomycin (100 μg/mL), and 10% heat-inactivated FBS at 37° C. in a humidified incubator with 5% CO2.
Method 1: Cells were plated at 350000 cells/well density in a 12-well plate, allowed 3 hours to adhere to the plate, then starved in the appropriate medium in the presence of 0.5% FBS overnight. The small molecules to be tested were added to the cells in the final concentration of 10 μM in the presence of 0.3% DMSO for 6 hours incubation at 37° C. Next, cells were stimulated with 1.5 ng/ml EGF for 15 minutes then cells were lysed with lysis buffer containing 1% Triton X-100, EDTA, and Halt™ Protease & Phosphatase Inhibitor Cocktail (Thermo Scientific). Protein concentration was assessed by BCA protein assay (Thermo Scientific). Phosphorylation level of Akt was determined by western blot.
Method 2: Cells were plated at 350000 cells/well density in a 12-well plate in 10% FBS. The next day small molecules to be tested were added to the cells in the final concentration of 10 μM in the presence of 0.3% DMSO for 6 hours incubation at 37° C. For IC50 value determination, serial dilutions of compounds were added to cells under the same conditions. Next, cells were lysed with lysis buffer containing 1% Triton X-100, EDTA, and Halt™ Protease & Phosphatase Inhibitor Cocktail (Thermo Scientific). Protein concentration was assessed by BCA protein assay (Thermo Scientific). Phosphorylation level of Akt was determined by western blot.
Western blot protocol: Equal amounts of protein (15-50 μg) were separated by SDS-PAGE and transferred to nitrocellulose membranes (Invitrogen by Thermo Fisher Scientific). The membrane was stained with Ponceau S Stain (Boston BioProducts) to verify uniform protein loading. Membranes were blocked with 10% milk and phosphorylation levels of Akt were assessed by incubating overnight at 4° C. with anti-phospho-Akt (Ser473) antibody (Cell Signaling) followed by HRP-conjugated secondary antibody (Jackson Immunoresearch, West Grove, PA). Bands were incubated in Amersham ECL Prime Western Blotting Detection Reagent (GE Healthcare) and visualized using the ChemiDoc MP imaging system (Bio-Rad).

[1] = system: MiaPaca-2 (expressing KRAS G12C mutant); test: Proliferation Assay (Cell Viability Assay); format: cell-based; settings: Homo sapiens, MIA PaCa-2
Method: Protocol for Proliferation Assay
This assay is referred to as the “Proliferation Assay” or “Cell Viability Assay” throughout this application.
Cell lines: Human tumor-derived cell lines were purchased from American Type Culture Collection. Human tumor-derived pancreatic cancer cell line MiaPaca-2 (expressing KRAS G12C mutant) and Panc-1 (expressing KRas G12D mutant), and Human non-small cell lung cancer (NSCLC) cell line A549 (expressing KRas G12S mutant) were grown in complete DMEM-High Glucose medium. Human colon cancer cell line SW-620 (expressing KRas G12V mutant) was grown in RPMI 1640 medium. All cell lines were supplemented with penicillin (100 U/mL), streptomycin (100 μg/mL), and 10% heat-inactivated FBS at 37° C. in a humidified incubator with 5% CO2.
(§1) Method: Cells were plated at 2000 to 5000 cells/well density in 96-wells plate and cultured overnight. Small molecules to be tested were added to the cells in the final concentration of 10 μM in the presence of 0.3% DMSO and 10% FBS and incubated for 2-4 days at 37° C. in a humidified incubator with 5% CO2. For IC50 value determination, serial dilutions of compounds were added to cells under the same conditions.
Assay: At the end of the incubation period, cell viability was determined using the CellTiter 96® Aqueous One Solution Cell Proliferation Assay according to manufacturer specifications (Promega, Madison, WI). The percentage of small molecules inhibition of cellular proliferation was calculated from raw data.
Cell lines: these Human tumor-derived cell lines were purchased from American Type Culture Collection. Human tumor-derived pancreatic cancer cell line MiaPaca-2 (expressing KRAS G12C mutant) and Panc-1 (expressing KRas G12D mutant), and Human non-small cell lung cancer (NSCLC) cell line A549 (expressing KRas G12S mutant), and Human melanoma cell line A375 (wild type Kras) were grown in complete DMEM-High Glucose medium. Human tumor-derived pancreatic cancer cell lines SU86.86 (expressing KRas G12D mutant), BxPC3 (expressing wild type K-Ras), and Human non-small cell lung cancer (NSCLC) cell lines NCI-H441 (expressing KRas G12S mutant), NCI-H1975 (expressing wild type KRas), NCI-H358 (expressing KRas G12C mutant), NCI-H1299 (expressing NRas Q61H mutant), and Human colon cancer cell line SW-620 (expressing KRas G12V mutant), Human triple negative breast cancer cell line HCC-1806 (expressing wild type KRas), and Human tumor-derived multiple myeloma cell line MM.1R (expressing wild type KRAS), were grown in RPMI 1640 medium. Human tumor-derived breast cancer cell line BT-549 (expressing wild type KRAS) was grown in RPMI 1640 medium in the presence of 11.8U insulin. Human tumor-derived pancreatic cancer cell line HPAF-II (expressing KRas G12D mutant), Human triple negative breast cancer cell line BT-20 (expressing wild type KRas), and Human colon cancer cell line LS123 (expressing KRas G12S mutant), were grown in EMEM medium. Human tumor-derived pancreatic cancer cell line CF-PAC1 (expressing KRas G12V mutant) was frown in IMDM medium, and Human colon cancer cell line HT29 (expressing wild type KRas) was grown in McCoy's 5A medium. The colon cancer cell line GP2d (expressing KRas G12D mutant) was purchased from MilliporeSigma and grown in DMEM-High Glucose medium. All cell lines were supplemented with penicillin (100 U/mL), streptomycin (100 μg/mL), and 10% heat-inactivated FBS at 37° C. in a humidified incubator with 5% CO2.
as §1, with “that were” for “to be”, “FBS,” for “FBS”

[2] = read-out: Proliferation in MiaPaca-2: IC50

IC50 [1, 2] [nM] | IC50 ([1]; Proliferation assay, MiaPaca-2, read-out: MiaPaca-2 IC50 (nM) Pancreatic) [nM] | Structure (SMILES) | % inh of Akt phosphorylation in Panc-1 (Akt phosphorylation)
< 150 |  | Cc1ccnc(Nc2nc(-c3nccn3C)nn3cc(-c4ccn(C5CC5)n4)c(C)c23)c1 [Compound 144, 6-(1-Cyclopropyl-1H-pyrazol-3-yl)-5-methyl-2-(1-methyl-1H-imidazol-2-yl)-N-(4-methylpyridin-2-yl)pyrrolo[2,1-f][1,2,4]triazin-4-amine] | B* (26-49% activation)
> 1000 |  | Cc1c(-c2ccn(C3CC3)n2)cn2nc(-c3nccn3C)nc(O)c12 [Compound 134, 6-(1-Cyclopropyl-1H-pyrazol-3-yl)-5-methyl-2-(1-methyl-1H-imidazol-2-yl)pyrrolo[2,1-f][1,2,4]triazin-4-ol] | A (1-25% inhibition)
> 1000 |  | COc1ccnc(Nc2nc(-c3nccn3C)nn3cc(-c4cccnc4)c(-c4ccccn4)c23)c1 [Compound 166, N-(4-Methoxypyridin-2-yl)-2-(1-methyl-1H-imidazol-2-yl)-5-(pyridin-2-yl)-6-(pyridin-3-yl)pyrrolo[2,1-f][1,2,4]triazin-4-amine] | D* (85-100% activation)
< 150 |  | Cc1c(-c2cccnc2)cn2nc(-c3nccn3C)nc(Nc3ccncn3)c12 [Compound 156, 5-Methyl-2-(1-methyl-1H-imidazol-2-yl)-6-(pyridin-3-yl)-N-(pyrimidin-4-yl)pyrrolo[2,1-f][1,2,4]triazin-4-amine] | D* (85-100% activation)
> 1000 |  | CO[C@H]1C[C@@H](Nc2nc(-c3nccn3C)nn3cc(-c4cccnc4)c(C)c23)C1 [Compound 153, N-((1s,3s)-3-methoxy-cyclobutyl)-5-methyl-2-(1-methyl-1H-imidazol-2-yl)-6-(pyridin-3-yl)pyrrolo[2,1-f][1,2,4]triazin-4-amine] | B (26-49% inhibition)
> 1000 |  | COc1cc(-c2cn3nc(-c4nccn4C)nc(N[C@H]4C[C@@H](OC)C4)c3c2C)ccn1 [Compound 162, N-((1s,3s)-3-Methoxycyclobutyl)-6-(2-methoxypyridin-4-yl)-5-methyl-2-(1-methyl-1H-imidazol-2-yl)pyrrolo[2,1-f][1,2,4]triazin-4-amine] | B (26-49% inhibition)
< 150 |  | COc1ccnc(Nc2nc(-c3nccn3C)nn3cc(-c4cccnc4)c(-c4cccnc4)c23)c1 [Compound 169, N-(4-methoxypyridin-2-yl)-2-(1-methyl-1H-imidazol-2-yl)-5,6-di(pyridin-3-yl)pyrrolo[2,1-f][1,2,4]triazin-4-amine] | C* (46-84% activation)

The remaining lines, values behind:

Structure (SMILES) | IC50 [1, 2] [nM] | IC50 ([1]; Proliferation assay, MiaPaca-2, read-out: MiaPaca-2 IC50 (nM) Pancreatic) [nM] | % inh of Akt phosphorylation in Panc-1 (Akt phosphorylation)
CO[C@H]1CC[C@@H](Nc2nc(-c3ccccn3)nn3cc(-c4ccn(C(C)C)n4)c(C)c23)C1 (racemic) [Compound 9, rac 6-(1-Isopropyl-1H-pyrazol-3-yl)-N-((1R,3S)-3-methoxycyclopentyl)-5-methyl-2-(pyridin-2-yl)pyrrolo[2,1-f][1,2,4]triazin-4-amine] | > 1000 |  | 0 (0% inhibition)
CO[C@H]1C[C@H](Nc2nc(-c3nccn3C)nn3cc(-c4ccn(C)n4)c(C)c23)C1 [Compound 103, N-((1r,3r)-3-Methoxycyclobutyl)-5-methyl-2-(1-methyl-1H-imidazol-2-yl)-6-(1-methyl-1H-pyrazol-3-yl)pyrrolo[2,1-f][1,2,4]triazin-4-amine hydrochloride salt] | > 1000 |  | C* (46-84% activation)
Cc1c(-c2ccn(C)n2)cn2nc(-c3nccn3C)nc(Nc3ccccn3)c12 [Compound 118, 5-Methyl-2-(1-methyl-1H-imidazol-2-yl)-6-(1-methyl-1H-pyrazol-3-yl)-N-(pyridin-2-yl)pyrrolo[2,1-f][1,2,4]triazin-4-amine] | < 150 |  | D* (85-100% activation)
COCCOc1cc(Nc2nc(-c3nccn3C)nn3cc(-c4ccn(C(C)C)n4)c(C)c23)ncn1 [Compound 122, 6-(1-Isopropyl-1H-pyrazol-3-yl)-N-(6-(2-methoxyethoxy)pyrimidin-4-yl)-5-methyl-2-(1-methyl-1H-imidazol-2-yl)pyrrolo[2,1-f][1,2,4]triazin-4-amine] | < 150 |  | C* (46-84% activation)
Cc1c(-c2ccn(C)n2)cn2nc(-c3nccn3C)nc(Nc3cn(C(C)C)nn3)c12 [Compound 109, N-(1-Isopropyl-1H-1,2,3-triazol-4-yl)-5-methyl-2-(1-methyl-1H-imidazol-2-yl)-6-(1-methyl-1H-pyrazol-3-yl)pyrrolo[2,1-f][1,2,4]triazin-4-amine] | 510 to 1000 |  | D* (85-100% activation)
Cc1c(-c2ccn(C)n2)cn2nc(-c3nccn3C)nc(Nc3cc(C4CC4)[nH]n3)c12 [Compound 104, N-(5-Cyclopropyl-1H-pyrazol-3-yl)-5-methyl-2-(1-methyl-1H-imidazol-2-yl)-6-(1-methyl-1H-pyrazol-3-yl)pyrrolo[2,1-f][1,2,4]triazin-4-amine] | < 150 | 1 to 10 | D* (85-100% activation)
COc1cc(Nc2nc(-c3nccn3C)nn3cc(-c4ccccn4)c(C)c23)ncn1 [Compound 94, N-(6-Methoxypyrimidin-4-yl)-5-methyl-2-(1-methyl-1H-imidazol-2-yl)-6-(pyridin-2-yl)pyrrolo[2,1-f][1,2,4]triazin-4-amine] | < 150 |  | D* (85-100% activation)
